Results published in patent US10894784B2, “Heteroarylbenzimidazole compounds” (BAYER PHARMA AKTIENGESELLSCHAFT, priority 2015, dated 2021).

Biological target: TBK1 (Homo sapiens (Human), UniProt Q9UHD2)
Test: TBK1 low ATP kinase assay (in vitro assay 1)
Type: biochemical
Details: TBK1 low ATP kinase assay IC50, in vitro assay 1

Sequence of TBK1 (Q9UHD2 whole entry): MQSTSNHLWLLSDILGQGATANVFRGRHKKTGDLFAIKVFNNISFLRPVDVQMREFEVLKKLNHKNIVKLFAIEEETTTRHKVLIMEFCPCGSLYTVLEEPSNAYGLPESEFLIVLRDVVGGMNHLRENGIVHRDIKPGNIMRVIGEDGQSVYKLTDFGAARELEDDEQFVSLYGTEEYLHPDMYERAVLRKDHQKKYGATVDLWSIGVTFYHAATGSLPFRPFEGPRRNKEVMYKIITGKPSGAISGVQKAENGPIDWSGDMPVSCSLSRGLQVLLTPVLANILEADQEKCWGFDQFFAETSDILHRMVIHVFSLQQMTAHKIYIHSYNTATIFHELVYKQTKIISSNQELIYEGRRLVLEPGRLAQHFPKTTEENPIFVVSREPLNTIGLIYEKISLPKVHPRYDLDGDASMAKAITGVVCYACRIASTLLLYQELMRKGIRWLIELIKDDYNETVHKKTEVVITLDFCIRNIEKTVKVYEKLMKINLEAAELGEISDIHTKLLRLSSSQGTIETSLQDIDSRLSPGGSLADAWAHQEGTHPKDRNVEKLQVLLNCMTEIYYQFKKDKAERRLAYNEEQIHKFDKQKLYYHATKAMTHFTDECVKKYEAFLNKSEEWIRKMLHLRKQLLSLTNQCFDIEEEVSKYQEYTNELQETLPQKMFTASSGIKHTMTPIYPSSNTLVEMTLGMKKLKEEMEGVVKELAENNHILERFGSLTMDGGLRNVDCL

Row | SMILES | IC50
1 | CC(c1ccnc(Nc2nc3ccc(-c4cc(OCC5CC5)ncn4)cc3[nH]2)c1)N1CCN(C(=O)CC(F)(F)F)CC1 (single isomer, unassigned) [Example 85.03, 1-(4-{(1R or 1S)-1-[2-({6-[6-(cyclopropylmethoxy)pyrimidin-4-yl]-1H-benzimidazol-2-yl}amino)pyridin-4-yl]ethyl}piperazin-1-yl)-3,3,3-trifluoropropan-1-one] | 1.8 nM

Same assay, conditions: in vitro assay 1, read-out: TBK1 low ATP kinase assay IC50

Row | SMILES | IC50
2 | CC(c1ccnc(Nc2nc3ccc(-c4ccnn4C(C)C)cc3[nH]2)c1)N1CCN(C(=O)C2CC2)CC1 (single isomer, unassigned) [Example 72.03, cyclopropyl(4-{(1R or 1S)-1-[2-({6-[1-(propan-2-yl)-1H-pyrazol-5-yl]-1H-benzimidazol-2-yl}amino)pyridin-4-yl]ethyl}piperazin-1-yl)methanone] | 100 nM
3 | Cc1cnn(C)c1-c1ccc2nc(Nc3cc(C(C)N4CCN(C(=O)CC(F)(F)F)CC4)ccn3)[nH]c2c1 (single isomer, unassigned) [Example 73.01, 1-{4-[(1R or 1S)-1-(2-{[6-(1,4-dimethyl-1H-pyrazol-5-yl)-1H-benzimidazol-2-yl]amino}pyridin-4-yl)ethyl]piperazin-1-yl}-3,3,3-trifluoropropan-1-one] | 67 nM
4 | CC(c1ccnc(Nc2nc3ccc(-c4cnn(C(C)C5CC5)c4)cc3[nH]2)c1)N1CCN(C(=O)OC(C)(C)C)CC1 (single isomer, unassigned) [Example 74.01, tert-butyl 4-[(1R or 1S)-1-{2-[(6-{1-[(1RS)-1-cyclopropylethyl]-1H-pyrazol-4-yl}-1H-benzimidazol-2-yl)amino]pyridin-4-yl}ethyl]piperazine-1-carboxylate] | 120 nM
5 | CC(c1ccnc(Nc2nc3ccc(-c4cnn(C(C)C5CC5)c4)cc3[nH]2)c1)N1CCN(C(=O)CC(F)(F)F)CC1 (single isomer, unassigned) [Example 74.02, 1-{4-[(1R or 1S)-1-{2-[(6-{1-[(1RS)-1-cyclopropylethyl]-1H-pyrazol-4-yl}-1H-benzimidazol-2-yl)amino]pyridin-4-yl}ethyl]piperazin-1-yl}-3,3,3-trifluoropropan-1-one] | 19 nM
6 | CC(c1ccnc(Nc2nc3ccc(-c4cnn(CC5CCC5)c4)c(Cl)c3[nH]2)c1)N1CCN(C(=O)OC(C)(C)C)CC1 (single isomer, unassigned) [Example 75.01, tert-butyl 4-{(1R or 1S)-1-[2-({7-chloro-6-[1-(cyclobutylmethyl)-1H-pyrazol-4-yl]-1H-benzimidazol-2-yl}amino)pyridin-4-yl]ethyl}piperazine-1-carboxylate] | 20 nM
7 | CC(c1ccnc(Nc2nc3ccc(-c4cnn(CC5CCC5)c4)c(Cl)c3[nH]2)c1)N1CCN(C(=O)CC(F)(F)F)CC1 (single isomer, unassigned) [Example 75.02, 1-(4-{(1R or 1S)-1-[2-({7-chloro-6-[1-(cyclobutylmethyl)-1H-pyrazol-4-yl]-1H-benzimidazol-2-yl}amino)pyridin-4-yl]ethyl}piperazin-1-yl)-3,3,3-trifluoropropan-1-one] | 1.4 nM
8 | CC(c1ccnc(Nc2nc3ccc(-c4cnn(CC5CCC5)c4)c(Cl)c3[nH]2)c1)N1CCN(C(=O)C2CC2)CC1 (single isomer, unassigned) [Example 75.03, (4-{(1R or 1S)-1-[2-({7-chloro-6-[1-(cyclobutylmethyl)-1H-pyrazol-4-yl]-1H-benzimidazol-2-yl}amino)pyridin-4-yl]ethyl}piperazin-1-yl)(cyclopropyl)methanone] | 0.88 nM
9 | COc1c(C)ncnc1-c1ccc2nc(Nc3cc(C(C)N4CCN(C(=O)CC(F)(F)F)CC4)ccn3)[nH]c2c1 (single isomer, unassigned) [Example 83.03, 3,3,3-trifluoro-1-{4-[(1R or 1S)-1-(2-{[6-(5-methoxy-6-methylpyrimidin-4-yl)-1H-benzimidazol-2-yl]amino}pyridin-4-yl)ethyl]piperazin-1-yl}propan-1-one] | 2.2 nM
10 | COc1c(C)ncnc1-c1ccc2nc(Nc3cc(C(C)N4CCN(C(=O)C5CC5)CC4)ccn3)[nH]c2c1 (single isomer, unassigned) [Example 83.04, cyclopropyl{4-[(1R or 1S)-1-(2-{[6-(5-methoxy-6-methylpyrimidin-4-yl)-1H-benzimidazol-2-yl]amino}pyridin-4-yl)ethyl]piperazin-1-yl}methanone] | 1.5 nM

The remaining lines, values ahead:

Row | IC50 | SMILES
11 | 1.1 nM | COCc1cc(-c2ccc3nc(Nc4cc(C(C)N5CCN(C(=O)OC(C)(C)C)CC5)ccn4)[nH]c3c2)ncn1 (single isomer, unassigned) [Example 84.01, tert-butyl 4-{(1R or 1S)-1-[2-({6-[6-(methoxymethyl)pyrimidin-4-yl]-1H-benzimidazol-2-yl}amino)pyridin-4-yl]ethyl}piperazine-1-carboxylate]
12 | 1.7 nM | COCc1cc(-c2ccc3nc(Nc4cc(C(C)N5CCN(C(=O)C6CC6)CC5)ccn4)[nH]c3c2)ncn1 (single isomer, unassigned) [Example 84.03, cyclopropyl(4-{(1R or 1S)-1-[2-({6-[6-(methoxymethyl)pyrimidin-4-yl]-1H-benzimidazol-2-yl}amino)pyridin-4-yl]ethyl}piperazin-1-yl)methanone]
13 | 5.7 nM | CC(c1ccnc(Nc2nc3ccc(-c4cc(Cl)ncn4)cc3[nH]2)c1)N1CCN(C(=O)OC(C)(C)C)CC1 (single isomer, unassigned) [Example 85.01, tert-Butyl 4-[(1R or 1S)-1-(2-{[6-(6-chloropyrimidin-4-yl)-1H-benzimidazol-2-yl]amino}pyridin-4-yl)ethyl]piperazine-1-carboxylate]
14 | 14 nM | CC(c1ccnc(Nc2nc3ccc(-c4cc(OCC5CC5)ncn4)cc3[nH]2)c1)N1CCN(C(=O)OC(C)(C)C)CC1 (single isomer, unassigned) [Example 85.02, tert-Butyl 4-{(1R or 1S)-1-[2-({6-[6-(cyclopropylmethoxy)pyrimidin-4-yl]-1H-benzimidazol-2-yl}amino)pyridin-4-yl]ethyl}piperazine-1-carboxylate]
15 | 11 nM | CC(c1ccnc(Nc2nc3ccc(-c4cnn(CC5CC5(F)F)c4)c(F)c3[nH]2)c1)N1CCN(C(=O)OC(C)(C)C)CC1 (single isomer, unassigned) [Example 86.01, tert-butyl 4-[(1R or 1S)-1-(2-{[6-(1-{[(1RS)-2,2-difluorocyclopropyl]methyl}-1H-pyrazol-4-yl)-7-fluoro-1H-benzimidazol-2-yl]amino}pyridin-4-yl)ethyl]piperazine-1-carboxylate]
16 | 2.1 nM | CC(c1ccnc(Nc2nc3ccc(-c4cnn(CC5CC5(F)F)c4)c(F)c3[nH]2)c1)N1CCN(C(=O)CC(F)(F)F)CC1 (single isomer, unassigned) [Example 86.02, 1-{4-[(1R or 1S)-1-(2-{[6-(1-{[(1RS)-2,2-difluorocyclopropyl]methyl}-1H-pyrazol-4-yl)-7-fluoro-1H-benzimidazol-2-yl]amino}pyridin-4-yl)ethyl]piperazin-1-yl}-3,3,3-trifluoropropan-1-one]
17 | 1.5 nM | CC(c1ccnc(Nc2nc3ccc(-c4cnn(CC5CC5(F)F)c4)c(F)c3[nH]2)c1)N1CCN(C(=O)C2CC2)CC1 (single isomer, unassigned) [Example 86.03, cyclopropyl{4-[(1R or 1S)-1-(2-{[6-(1-{[(1RS)-2,2-difluorocyclopropyl]methyl}-1H-pyrazol-4-yl)-7-fluoro-1H-benzimidazol-2-yl]amino}pyridin-4-yl)ethyl]piperazin-1-yl}methanone]
18 | 2.3 nM | CC(c1ccnc(Nc2nc3ccc(-c4cnn(CC(F)F)c4)cc3[nH]2)c1)N1CCN(C(=O)CC(F)(F)F)CC1 (single isomer, unassigned) [Example 87.01, 1-(4-{(1R or 1S)-1-[2-({6-[1-(2,2-difluoroethyl)-1H-pyrazol-4-yl]-1H-benzimidazol-2-yl}amino)pyridin-4-yl]ethyl}piperazin-1-yl)-3,3,3-trifluoropropan-1-one]
19 | 2 nM | CC(c1ccnc(Nc2nc3ccc(-c4cnn(CC(F)F)c4)cc3[nH]2)c1)N1CCN(C(=O)C2CC2)CC1 (single isomer, unassigned) [Example 87.02, cyclopropyl(4-{(1R or 1S)-1-[2-({6-[1-(2,2-difluoroethyl)-1H-pyrazol-4-yl]-1H-benzimidazol-2-yl}amino)pyridin-4-yl]ethyl}piperazin-1-yl)methanone]
20 | 11000 nM | CC(c1ccnc(Nc2nc3cc(-c4cc(C(F)(F)F)nn4C)ccc3[nH]2)c1)N1CCN(C(=O)OC(C)(C)C)CC1 (single isomer, unassigned) [Example 88.01, tert-butyl 4-{(1R or 1S)-1-[2-({6-[1-methyl-3-(trifluoromethyl)-1H-pyrazol-5-yl]-1H-benzimidazol-2-yl}amino)pyridin-4-yl]ethyl}piperazine-1-carboxylate]
21 | 860 nM | CC(c1ccnc(Nc2nc3ccc(-c4cc(C(F)(F)F)nn4C)cc3[nH]2)c1)N1CCN(C(=O)CC(F)(F)F)CC1 (single isomer, unassigned) [Example 88.02, 3,3,3-trifluoro-1-(4-{(1R or 1S)-1-[2-({6-[1-methyl-3-(trifluoromethyl)-1H-pyrazol-5-yl]-1H-benzimidazol-2-yl}amino)pyridin-4-yl]ethyl}piperazin-1-yl)propan-1-one]
22 | 990 nM | CC(c1ccnc(Nc2nc3ccc(-c4cc(C(F)(F)F)nn4C)cc3[nH]2)c1)N1CCN(C(=O)C2CC2)CC1 (single isomer, unassigned) [Example 88.03, cyclopropyl(4-{(1R or 1S)-1-[2-({6-[1-methyl-3-(trifluoromethyl)-1H-pyrazol-5-yl]-1H-benzimidazol-2-yl}amino)pyridin-4-yl]ethyl}piperazin-1-yl)methanone]
23 | 610 nM | Cc1cc(-c2ccc3nc(Nc4cc(C(C)N5CCN(C(=O)OC(C)(C)C)CC5)ccn4)[nH]c3c2)n(C)n1 (single isomer, unassigned) [Example 89.01, tert-butyl 4-[(1R or 1S)-1-(2-{[6-(1,3-dimethyl-1H-pyrazol-5-yl)-1H-benzimidazol-2-yl]amino}pyridin-4-yl)ethyl]piperazine-1-carboxylate]
